We go through 56 compounds from patent US20250171452A1 (Viscient Bio, Inc., priority 2022, published 2025).

Where a name gives a salt, the structure may show the parent alone. Bounds are passed on as bounds.

In this assay the target is IDO2 (Homo sapiens (Human), UniProt Q6ZQW0). The assay can be described thus: Cellular IDO2 assay, doxycycline and 5-methoxy-L-tryptophan medium, colorimetric. It counts as cell-based. The conditions noted are these: cellular level, 72 h incubation, signal at 480 nm.
Chain of IDO2 (Q6ZQW0 whole entry, species assumed): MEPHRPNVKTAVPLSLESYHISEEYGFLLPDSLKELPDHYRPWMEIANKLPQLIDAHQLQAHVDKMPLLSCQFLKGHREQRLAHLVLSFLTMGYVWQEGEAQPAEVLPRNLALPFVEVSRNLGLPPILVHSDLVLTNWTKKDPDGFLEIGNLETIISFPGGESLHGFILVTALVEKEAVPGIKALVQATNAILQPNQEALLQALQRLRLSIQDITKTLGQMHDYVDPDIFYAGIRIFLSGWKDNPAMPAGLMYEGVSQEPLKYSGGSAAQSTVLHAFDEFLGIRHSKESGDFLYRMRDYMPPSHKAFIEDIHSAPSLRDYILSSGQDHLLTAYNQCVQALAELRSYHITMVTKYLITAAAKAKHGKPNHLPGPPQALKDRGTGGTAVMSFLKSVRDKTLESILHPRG
For the compound `CN(C)Cc1ccc2nc3n(c(=O)c2c1Cl)-c1ccc(C#N)cc1C3=O` [Compound 104], the IC50 was below 0.05 µM.

As to `CC(C)(C)OC(=O)NCCNC(=O)c1ccc2c(c1)C(=O)c1nc3cc(Cl)ccc3c(=O)n1-2` [Compound 77], the IC50 was in the range of 0.05 to 0.5 µM.

Turning to `CON=C1c2cc(F)ccc2-n2c1nc1cc(CNS(C)(=O)=O)ccc1c2=O` (stereo in doubt) [Compound 91, (Z)—N-((8-fluoro-6-(methoxyimino)-12-oxo-6,12-dihydroindolo[2,1-b]quinazolin-3-yl)methyl)methanesulfonamide], the concentration for half-maximal inhibition (IC50) is below 0.05 µM.

As to `O=C(O)c1ccc2nc3n(c(=O)c2c1)-c1ccc(F)cc1C3=O` [Compound 153, 8-fluoro-6,12-dioxo-6,12-dihydroindolo[2,1-b]quinazoline-2-carboxylic Acid], the IC50 was above 0.5 µM.

The compound `[2H]C([2H])(Nc1ccc2c(=O)n3c(nc2c1)C(=O)c1cc(F)ccc1-3)c1ccc(F)cc1` [Compound 69] registered an IC50 below 0.05 µM.

With `O=C1c2cc(SCc3ccccc3)ccc2-n2c1nc1cc(Cl)ccc1c2=O` [Compound 78], the IC50 lay within 0.05 to 0.5 µM.

For the compound `NC(=O)NCc1ccc2nc3n(c(=O)c2c1)-c1ccc(F)cc1C3=O` [Compound 139, 1-((8-fluoro-6,12-dioxo-6,12-dihydroindolo[2,1-b]quinazolin-2-yl)methyl)urea], the half-inhibitory concentration (IC50) is below 0.05 µM.

As for `O=C1c2cc([N+](=O)[O-])ccc2-n2c1nc1cnccc1c2=O` [Compound 57, 9-Nitropyrido[3′,4′:4,5]pyrimido[1,2-a]indole-5,11-dione], the IC50 is below 0.05 µM.

`CO/N=C1/c2cc(F)ccc2-n2c1nc1cc(-n3ccnc3)ccc1c2=O` [Compound 97, (Z)-8-fluoro-3-(1H-imidazol-1-yl)-6-(methoxyimino)indolo[2,1-b]quinazolin-12(6H)-one] came in with an IC50 below 0.05 µM.

As to `O=C1c2cc(F)ccc2-n2c1nc1ccc(-n3ccnc3)cc1c2=O` [Compound 137, 8-fluoro-2-(1H-imidazol-1-yl)indolo[2,1-b]quinazoline-6,12-dione], the IC50 is below 0.05 µM.

Take `Cc1ccc2nc3n(c(=O)c2c1)-c1ccc([N+](=O)[O-])cc1C3=O` [Compound 52, 2-Methyl-8-nitroindolo[2,1-b]quinazoline-6,12-dione]: the IC50 was below 0.05 µM.

The compound `O=C1c2cc(F)ccc2-n2c1nc1cc(NCc3ccc(F)cc3)ccc1c2=O` [Compound 81] had an IC50 below 0.05 µM.

For the compound `NCc1cccc2nc3n(c(=O)c12)-c1ccc(F)cc1C3=O` [Compound 101, 1-(aminomethyl)-8-fluoroindolo[2,1-b]quinazoline-6,12-dione], the IC50 fell in the range of 0.05 to 0.5 µM.

On to `CC(=O)NCc1ccc2c(=O)n3c(nc2c1)C(=O)c1cc(F)ccc1-3` [Compound 100, N-((8-fluoro-6,12-dioxo-6,12-dihydroindolo[2,1-b]quinazolin-3-yl)methyl)acetamide], for which the IC50 was below 0.05 µM.

With `CC(=O)NCc1ccc2nc3n(c(=O)c2c1)-c1ccc(F)cc1C3=O` [Compound 142, N-((8-fluoro-6,12-dioxo-6,12-dihydroindolo[2,1-b]quinazolin-2-yl)methyl)acetamide], the IC50 was below 0.05 µM.

`O=C1c2cc(F)ccc2-n2c1nc1cccc(Br)c1c2=O` [Compound 103, 1-bromo-8-fluoroindolo[2,1-b]quinazoline-6,12-dione] gave an IC50 below 0.05 µM.

`O=C1c2cc(F)ccc2-n2c1nc1cc(Nc3ccc(F)cc3)ccc1c2=O` [Compound 83] returned an IC50 below 0.05 µM.

Compound `NS(=O)(=O)NCc1ccc2c(=O)n3c(nc2c1)C(=O)c1cc(F)ccc1-3` [Compound 88] had an IC50 below 0.05 µM.

As to `NCCNC(=O)c1ccc2c(c1)/C(=N\O)c1nc3cc(Cl)ccc3c(=O)n1-2` [Compound 61], the IC50 is above 0.5 µM.

For the compound `NCc1cccc2nc3n(c(=O)c12)-c1ccc(F)cc1C3=O` [Compound 102], the IC50 is below 0.05 µM.

As to `CC1(O)c2cc(F)ccc2-n2c1nc1ccc(C#N)cc1c2=O` (centres unmarked) [Compound 152, 8-fluoro-6-hydroxy-6-methyl-12-oxo-6,12-dihydroindolo[2,1-b]quinazoline-2-carbonitrile], the IC50 was above 0.5 µM.

For `NC(=O)c1ccc2c(c1)Cc1nc3cc(F)ccc3c(=O)n1-2` [Compound 80], the IC50 lay within 0.05 to 0.5 µM.

On to `CN(C)Cc1ccc2nc3n(c(=O)c2c1)-c1ccc(SCc2ccccc2)cc1C3=O` [Compound 130], for which the IC50 was above 0.5 µM.

As to `CS(=O)(=O)c1ccc2c(c1)C(=O)c1nc3cc(Cl)cc(Cl)c3c(=O)n1-2` [Compound 87], the IC50 is below 0.05 µM.

The compound `O=C1c2cc(F)ccc2-n2c1nc1ccc(CNc3ccccn3)cc1c2=O` [Compound 141, 8-fluoro-2-((pyridin-2-ylamino)methyl)indolo[2,1-b]quinazoline-6,12-dione] returned an IC50 of 0.05 to 0.5 µM.

The compound `CNS(=O)(=O)c1ccc2c(c1)C(=O)c1nc3cc(F)ccc3c(=O)n1-2` [Compound 82] showed an IC50 below 0.05 µM.

In the case of `CO/N=C1/c2cc(F)ccc2-n2c1nc1ccc(CN(C)C)cc1c2=O` [Compound 138, (Z)-2-((dimethylamino)methyl)-8-fluoro-6-(methoxyimino)indolo[2,1-b]quinazolin-12(6H)-one Trifluoroacetate Salt], the IC50 lay in the range of 0.05 to 0.5 µM.

`O=c1c2ccc(Cl)cc2nc2n1-c1ccc(Br)cc1C2` [Compound 76] came in with a 50% inhibitory concentration (IC50) below 0.05 µM.

On to `O=C1c2cc([N+](=O)[O-])ccc2-n2c1nc1ccc(F)c(F)c1c2=O` [Compound 108], for which the IC50 lay in the range of 0.05 to 0.5 µM.

The compound `CON=C1c2cc(F)ccc2-n2c1nc1cc(CNC(=O)OCc3ccccc3)ccc1c2=O` (stereo in doubt) [Compound 93, benzyl (Z)-((8-fluoro-6-(methoxyimino)-12-oxo-6,12-dihydroindolo[2,1-b]quinazolin-3-yl)methyl)carbamate] displayed an IC50 of 0.05 to 0.5 µM.

On to `O=C1c2cc(C(F)(F)F)ccc2-n2c1nc1ccccc1c2=O` [Compound 53, 8-(Trifluoromethyl)indolo[2,1-b]quinazoline-6,12-dione], for which the IC50 is below 0.05 µM.

For `CS(=O)(=O)c1ccc2c(c1)C(=O)c1nc3cc(F)cc(F)c3c(=O)n1-2` [Compound 106], the IC50 is 0.05 to 0.5 µM.

Turning to `O=C1c2cc(F)ccc2-n2c1nc1cc(-n3ccnc3)ccc1c2=O` [Compound 98, 8-fluoro-3-(1H-imidazol-1-yl)indolo[2,1-b]quinazoline-6,12-dione], the IC50 is below 0.05 µM.

For `NCCNC(=O)c1ccc2c(c1)/C(=N\O)c1nc3cc(Cl)ccc3c(=O)n1-2` [Compound 68], the IC50 is 0.05 to 0.5 µM.

On to `N#Cc1ccc2c(c1)/C(=N\O)c1nc3cc(Cl)ccc3c(=O)n1-2` [Compound 84], for which the IC50 was below 0.05 µM.

Compound `NS(=O)(=O)c1ccc2c(c1)C(=O)c1nc3cc(Cl)ccc3c(=O)n1-2` [Compound 75] returned an IC50 of 0.05 to 0.5 µM.

For the compound `N=C(N)NCc1ccc2nc3n(c(=O)c2c1)-c1ccc(F)cc1C3=O` [Compound 147, 1-((8-fluoro-6,12-dioxo-6,12-dihydroindolo[2,1-b]quinazolin-2-yl)methyl)guanidine], the IC50 was in the range of 0.05 to 0.5 µM.

The compound `NS(=O)(=O)c1ccc2c(c1)C(=O)c1nc3cc(F)cc(F)c3c(=O)n1-2` [Compound 109] returned a half-inhibitory concentration (IC50) of 0.05 to 0.5 µM.

For `CC(C)(C)OC(=O)NCc1ccc2c(=O)n3c(nc2c1)C(=O)c1cc(F)ccc1-3` [Compound 92], the IC50 was below 0.05 µM.

In the case of `NCc1ccc2nc3n(c(=O)c2c1)-c1ccc(F)cc1C3=O` [Compound 144, 2-(aminomethyl)-8-fluoroindolo[2,1-b]quinazoline-6,12-dione hydrochloride Salt], the IC50 is below 0.05 µM.

On to `N#Cc1ccc2c(c1)C(=O)c1nc3c(Nc4ccc(F)cc4)cccc3c(=O)n1-2` [Compound 119, 4-((4-Fluorophenyl)amino)-6,12-dioxo-6,12-dihydroindolo[2,1-b]quinazoline-8-carbonitrile], for which the IC50 is below 0.05 µM.

With `CN(C)S(=O)(=O)c1ccc2c(c1)C(=O)c1nc3cc(F)ccc3c(=O)n1-2` [Compound 79], the IC50 was below 0.05 µM.

`O=C1c2cc([N+](=O)[O-])ccc2-n2c1nc1cc(Cl)cc(Cl)c1c2=O` [Compound 56, 1,3-Dichloro-8-nitroindolo[2,1-b]quinazoline-6,12-dione] showed an IC50 of 0.05 to 0.5 µM.

In the case of `N#Cc1ccc2c(c1)C(=O)c1nc3cc(Cl)cc(Cl)c3c(=O)n1-2` [Compound 113], the IC50 is below 0.05 µM.

In turn, `N#Cc1ccc2c(c1)Cc1nc3cc(F)ccc3c(=O)n1-2` [Compound 72] showed an IC50 below 0.05 µM.

Compound `NCc1ccc2c(=O)n3c(nc2c1)C(=O)c1cc(F)ccc1-3` [Compound 90, 3-(aminomethyl)-8-fluoroindolo[2,1-b]quinazoline-6,12-dione Hydrochloride Salt] came in with an IC50 of 0.05 to 0.5 µM.

In turn, `N#Cc1ccc2c(c1)C(=O)c1nc3cc(F)cc(F)c3c(=O)n1-2` [Compound 114] registered an IC50 of 0.05 to 0.5 µM.

In the case of `NS(=O)(=O)NCc1ccc2nc3n(c(=O)c2c1)-c1ccc(F)cc1C3=O` [Compound 143], the IC50 was below 0.05 µM.

On to `O=C1c2c(ccc(F)c2F)-n2c1nc1ccccc1c2=O` [Compound 60, 7,8-Difluoroindolo[2,1-b]quinazoline-6,12-dione], for which the IC50 was below 0.05 µM.

On to `NC(=O)c1ccc2nc3n(c(=O)c2c1)-c1ccc(F)cc1C3=O` [Compound 149, 8-fluoro-6,12-dioxo-6,12-dihydroindolo[2,1-b]quinazoline-2-carboxamide], for which the IC50 was below 0.05 µM.

For `O=C1c2cc(SCc3ccccc3)ccc2-n2c1nc1c(Cl)cccc1c2=O` [Compound 117], the IC50 is below 0.05 µM.

With `O=C1c2cc(F)ccc2-n2c1nc1c(NCc3ccc(F)cc3)cccc1c2=O` [Compound 115, 8-Fluoro-4-((4-fluorobenzyl)amino)indolo[2,1-b]quinazoline-6,12-dione], the IC50 lay within 0.05 to 0.5 µM.

In turn, `O=C1c2cc(F)ccc2-n2c1nc1c(OCc3ccc(F)cc3)cccc1c2=O` [Compound 124] came in with an IC50 of 0.05 to 0.5 µM.

For the compound `CS(=O)(=O)Nc1ccc2c(c1)C(=O)c1nc3cc(Cl)cc(Cl)c3c(=O)n1-2` [Compound 86], the IC50 lay within 0.05 to 0.5 µM.

For the compound `CN(C)Cc1ccc2nc3n(c(=O)c2c1)-c1ccc(Br)cc1C3=O` [Compound 128], the IC50 is below 0.05 µM.

`CS(=O)(=O)c1ccc2c(c1)/C(=N\O)c1nc3cc(F)ccc3c(=O)n1-2` [Compound 67] gave an IC50 of 0.05 to 0.5 µM.
